Test results taken from US20240270771A1, “Compound containing phosphate group, pharmaceutical composition containing same, preparation method therefor and use thereof” (SHANGHAI RAISING PHARMACEUTICAL CO., LTD., priority 2021, published 2024).

Experiments:
Aβ40 = Aβ40 content in culture supernatant of HEK293APP/sw overexpressing cells (ELISA kit); assay type: cell-based; conditions: compound 400 μM, 24 hours, adjusted by total protein concentration, blank control 127.81
Protocol: BCA Protein Assay Kit was purchased from Beyotime, Aβ40 and Aβ42 detection kits were purchased from Wako, and cell culture related reagents were purchased from Gibco.
HEK293APP/sw overexpressing cells were cultured in DMEM medium containing 10% FBS, 100 μg/mL G418 (Geneticin) and 1×Penicillin-Streptomycin in 48-well plates. A 4 mM compound stock solution (prepared by dissolving the compound in DMEM culture medium) was filtered through a 0.22 μm sterile filter and stored at −20° C. for subsequent use. At 70% cell density, 40 μL of the compound test solution was added to each well to reach a final concentration of 400 μM, and the plate was incubated for 24 hours.
The supernatant of the culture medium was collected. The BCA reagent was added to a part of the supernatant, after incubating at room temperature for 30 min, the absorbance value (i.e., OD value) of each well was determined by a microplate reader at 570 nm. The total protein concentration was calculated according to a protein standard curve. Meanwhile, the other part of the supernatant (100 μL) was added to a coated 96-well plate and incubated overnight at 4° C., after the solution was removed and the reagents were washed, HRP (horseradish peroxidase)-labeled antibody was added and incubated at 4° C. for 2 hours. After the reagents were removed and washed, a TMB chromogenic solution was added, the plate was incubated at room temperature for 30 min, and then a stop solution was added to stop the reaction. The absorbance value (i.e., OD value) of each well was measured by a microplate reader at 450 nm. The concentrations of Aβ40 and Aβ42 were calculated according to the standard curves of Aβ40 and Aβ42, respectively. In the end, the concentrations of Aβ40 and Aβ42 were adjusted by the total protein concentration, so as to obtain the final concentration.

[1] = tested on: sodium nitrite-induced hypoxic memory impairment model; experiment: Jumping stand test, sodium nitrite-induced hypoxic memory impairment model; assay type: in vivo, ICR mice; conditions: sodium nitrite 120 mg/kg s.c., compound 200 mg/kg gavage once a day 3 weeks; for Number of errors: model group 1.4 ± 0.7; for Latency period: model group 93.8 ± 90.25
Protocol: (§1) The mice employed in the present test were purchased from Xipuer-BIKAI Laboratory Animal Co., Ltd., and they were SPF grade ICR mice, 3-4 weeks old, weighing 16-18 g.
Sodium nitrite (NaNO2) was purchased from Sinopharm Chemical Reagent Co., Ltd.; Product No.: 10020018; Specification: analytical grade.
(§2) Test article preparation: 100 mg of the compound to be tested was weighed and added to 10 mL of 0.7% CMC-Na to prepare a 10 mg/mL suspension for use.
(§3) The laboratory mice were randomly divided into groups (9 or 10 mice per group). The mice in each group were administrated at a dosage of 0.2 mL/10 g body weight by oral gavage once a day for three weeks.
The laboratory animals were administered by gavage for 3 consecutive weeks according to the above administration dosage/specification. Training was started on the last day of administration, and the test was conducted 24 hours later.
The laboratory animals were administered by gavage for three weeks. One hour after the last administration, the animals were trained with YLS-3 TB jumping stand detector. After the training, sodium nitrite (mouse: 120 mg/kg) was injected subcutaneously (in the neck) immediately. The jumping stand test was conducted 24 hours later. The latency period (the time from the start of counting to the first time of jumping off the stand) and the number of errors (the number of electric shock) were recorded.
The YLS-3 TB jumping stand detector were divided into five compartments by transparent boards. The bottom of the compartment was covered with a copper grid and applied with a voltage of 50 V A rubber pad stand with a height of 3.5 cm and a diameter of 3.5 cm was placed in each compartment to serve as a safe area for mice to avoid electric shock. Training of laboratory mice before the formal test: the laboratory mice were placed in the small compartment with a stand to get familiar with the environment for 5 min (the five compartments were connected), and then electrified for stimulation (all the laboratory mice were on the grid at this time), at the voltage of 50 V and current of 1.00 mA. Mice have the habit of jumping from a high place. If they jump, they will be shocked to produce memory. The current was applied for 5 min, which served as the training process.
Testing: the animals were put on the stand in the jumping compartment one by one. The time interval for putting each animal was 5 s. After the first animal was put on the stand, the electricity was applied immediately. The electricity was applied for 6 min. At the end of applying electricity, data were printed, and the latency period (the time from the start of counting to the first time of jumping off the stand) and the number of errors (the number of electric shock during the testing period) were recorded. Due to the different time of putting the animal in, the time difference can be subtracted according to the actual time of putting the animal.

[2] = tested on: memory reproduction disorder model induce by ethanol; experiment: Dark avoidance test, memory reproduction disorder model induced by ethanol; assay type: in vivo, ICR mice; conditions: 45% ethanol 0.1 mL/10 g gavage, compound 200 mg/kg gavage once a day 3 weeks; for Number of errors: model group 2.4 ± 1.7; for Latency period: model group 118.4 ± 106.9
Protocol: as §1
Anhydrous ethanol: Shanghai Titan Technology Co., Ltd.; Product No.: G73537B; Purity: >99.7%.
as §2, §3
The laboratory mice animals were administered by gavage for three weeks. One hour after the last administration, they were trained with the YLS-17B dark avoidance tester. The test was performed 24 h later. A 45% ethanol solution (0.1 mL/10 g) was administered by oral gavage 30 min before the test. The latency period (the time from the start of counting to the first time of entering the dark compartment) and the number of errors (number of electric shocks) of the animals were recorded.
The activity box of the dark avoidance automatic tester comprises two compartments (bright and dark), there is a hole between the two compartments, the bottom of the box is covered by a copper grid, and the animals normally go into the dark compartment. Before the formal test, the laboratory mice were trained by placing the animals in the bright compartment with their backs facing the entrance of the hole, to get familiar with the environment for 5 min, and then the copper grid in the dark compartment was electrified for stimulation at a voltage of 50 V and a current of 1.00 mA (which can be adjusted according to the actual situation). When the animals received electric shock, they entered the bright compartment, or went back and forth between the two compartments. The current was continuously applied for 5 min, which served as the training process.
Testing: the mice modeled with ethanol were put into the bright box one by one with their backs facing the entrance of the hole, and the time interval between putting each animal was 5 s. After the first animal was put into the bright compartment, the electricity was applied immediately. The electricity was applied for 6 min. At the end of applying electricity, data were printed, and the latency period (the time from the start of counting to the first time of entering the dark compartment) and the number of errors (the number of electric shock during the testing period) were recorded. Due to the different time of putting the animal in, the time difference can be subtracted according to the actual time of putting the animal.
Statistical analysis: all data were expressed as the mean value±standard deviation, and SPSS software was used for analysis.

| Structure (SMILES) | The content of Aβ40 (Aβ40) [pmol/L] | Number of errors [1] | Latency period [1] [s] | Number of errors [2] | Latency period [2] [s] |
| --- | --- | --- | --- | --- | --- |
| CCCC(CCC)C(=O)S/C(CCOP(=O)(O)O)=C(/C)N(C=O)Cc1cnc(C)nc1N [Compound 1, (Z)—S-(2-(N-((4-amino-2-methylpyrimidin-5-yl)methyl)formamido)-5-(phosphonooxy)pent-2-en-3-yl) 2-propylpentanethioate] | 41.18 | 0.4 ± 0.7 | 228.8 ± 155.9 | 1.0 ± 1.25 | 229.8 ± 90.0 |
| C/C(=C(\CCOP(=O)(O)O)SC(=O)c1ccco1)N(C=O)Cc1cnc(C)nc1N [Compound 9, (Z)—S-(2-(N-((4-amino-2-methylpyrimidin-5-yl)methyl)formamido)-5-(phosphonooxy)pent-2-en-3-yl) furan-2-carbothioate] | 42.88 | 0.6 ± 0.7 | 209.3 ± 110.4 | 1.0 ± 1.0 | 216.1 ± 76.8 |
| CCC(CC)C(=O)S/C(CCOP(=O)(O)O)=C(/C)N(C=O)Cc1cnc(C)nc1N [Compound 2, (Z)—S-(2-(N-((4-amino-2-methylpyrimidin-5-yl)methyl)formamido)-5-(phosphonooxy)pent-2-en-3-yl) 2-ethylbutanethioate] | 37.39 | 0.6 ± 0.8 | 210.4 ± 117.3 | 1.2 ± 1.3 | 217.4 ± 96.6 |
